Test results: patent US8252822B2, “Heterocyclic compounds and uses as anticancer agents” (Acea Biosciences, Inc., priority 2007, dated 2012)

What was measured:
A549 cells = assay: RT-CES cell proliferation inhibition, A549; format: cell-based, Human
Text: The biological activity of compounds disclosed herein was monitored and profiled using the Real-Time Cell Electronic Sensing (RT-CES®) system from ACEA Biosciences, Inc. The RT-CES system utilizes cell-substrate impedance technology to monitor cellular behavior inside tissue culture wells in a microtiter plate format. The technology features in the integration of molecular and cell biology with microelectronics and is based on the electronic detection of biological assay process. The details of this cell electronic sensing technology and associated devices, systems and methods of use as described in U.S. provisional application No. 60/379,749, filed on Jul. 20, 2002; U.S. provisional application No. 60/435,400, filed on Dec. 20, 2002; U.S. Provisional application 60/469,572, filed on May 9, 2003, PCT application number PCT/US03/22557, filed on Jul. 18, 2003; PCT application number PCT/US03/22537, filed on Jul. 18, 2003; U.S. patent application Ser. No. 10/705,447, filed on Nov. 10, 2003; U.S. patent application Ser. No. 10/705,615, filed on Nov. 10, 2003, each of which is incorporated by reference. Additional details of RT-CES technology is further disclosed in U.S. provisional application No. 60/519,567, filed on Nov. 12, 2003, and U.S. provisional application No. 60/542,927, filed on Feb. 9, 2004.
For measurement of cell-substrate or cell-electrode impedance using RT-CES technology, microelectrodes having appropriate geometries are fabricated onto the bottom surfaces of microtiter plate or similar device, facing into the wells. Cells are introduced into the wells of the devices, and make contact to and attach to the electrode surfaces. The presence, absence or change of properties of cells affects the electronic and ionic passage on the electrode sensor surfaces. Measuring the impedance between or among electrodes provides important information about biological status of cells present on the sensors. When there are changes to the biological status of the cells analogue electronic readout signals are measured automatically and in real time, and are converted to digital signals for processing and for analysis. In a RT-CES system, a cell index (arbitrary representation of change in impedance) is automatically derived and provided based on measured electrode impedance values. The cell index obtained for a given well reflects: 1) how many cells are attached to the electrode surfaces in this well; 2) how well cells are attached to the electrode surfaces in this well. Thus, the more the cells of same type in similar physiological conditions attach the electrode surfaces, the larger the cell index. And, the better the cells attach to the electrode surfaces (e.g., the cells spread-out more to have larger contact areas, or the cells attach tighter to electrode surfaces), the larger the cell index.
The RT-CES system comprises three components, an electronic sensor analyzer, a device station and 16× or 96× microtiter devices. Microelectrode sensor array was fabricated on glass slides with lithographical microfabrication methods and the electrode-containing slides are assembled to plastic trays to form electrode-containing wells. The device station receives the 16× or 96× microtiter plate devices and is capable of electronically switching any one of the wells to the sensor analyzer for impedance measurement. In operation, the devices with cells cultured in the wells are placed into a device station that is located inside an incubator. Electrical cables connect the device station to the sensor analyzer. Under the RT-CES software control, the sensor analyzer can automatically select wells to be measured and continuously conduct impedance measurements. The impedance data from the analyzer is transferred to a computer, analyzed and processed by the integrated software.
To quantify cell status based on the measured cell-electrode impedance, a parameter termed Cell Index is derived. […]

melting point | Structure (SMILES) | response pattern of A549 cells compared with paclitaxel (A549 cells; 140 nM of compound vs 12.5 nM of paclitaxel) | response pattern of A549 cells compared with paclitaxel (A549 cells; 560 nM of compound vs 25 nM of paclitaxel) | concentration at or above which cell indices first decreased with time and then increased (A549 cells; A549, complex kinetic responses) | IC50 (A549 cells; Homo sapiens, A549, 24 hours after compound treatment, normalized Cell Index, read-out: IC50 (24 hr)) | inhibitory ability against the proliferation of A549 cells (A549 cells; various concentrations studied, time-dependent cell index)
> 250 °C | Br.Cc1nc2sccn2c1-c1csc(Nc2ccc(Br)cc2)n1 | – | – | – | – | –
– | Br.Cc1nc2sccn2c1-c1csc(Nc2ccc(Br)cc2)n1 [Compound 28, 2-(4-bromophenyl)amino-4-(6-methylimidazo[2,1-b]thiazol-5-yl)thiazole] | somewhat similar | somewhat similar | ≥ 0.14 µM | 86.4 nM | exhibited inhibitory ability against the proliferation of A549 cells
